Assay results as given in US7256028B2, “Methods for screening compounds that modulate lipid metabolism” (Xenon Genetics Inc., priority 2000, dated 2007).

Legend:
[1] = tested on: D6D Promoter (human delta-6-desaturase control region, pRh4002.1); assay: CAT reporter assay, basal activity of D6D promoter in ZR-75-1 cell line; format: cell-based; conditions: ZR-75-1 cells transfected with pRh4002.1 (D6D) plus agent; CAT activity normalized to pCat3-Control = 100; pRh4002.1 alone 75.91
[2] = tested on: whole cells of Saccharomyces cerevisiae; assay: Cell density (O.D.600) and substrate radioactivity recovered in whole yeast incubated with inhibitor; format: cell-based
Procedure: (§2) Incubation of Whole Yeast: Saccharomyces cerevisiae transformed with either pYr5014.1 or pTh5009.1 were incubated in a 125 ml Erlenmeyer flask containing 9 ml of SC-U medium with 1% tergitol (O.D.600 0.4, approximately 3.2×10^6 cells/ml) and 200 μl of n-propyl gallate in ethanol (final concentration in the culture ranged between 1.7-14.0 mM). After I h incubation in an orbital incubator at 270 rpm and 30° C., 1 μCi of potassium salt of [1-^14C]-dihomogammalinolenic acid (dissolved in SC-U medium and 1% tergitol) was added to the cell suspension to a final concentration of 2 μM. After 5 h incubation with the inhibitor, cells reached the log phase and the transgene expression was induced with the addition of 1 ml of galactose to a final concentration of 2%. Yeast were further incubated for 19 h (O.D.600 range: 5-10) until they were harvested by centrifugation at 5000×g for 10 minutes at 4° C.

[3] = target: T1, human delta-5-desaturase (Homo sapiens, UniProt O60427); assay: Inhibition of human delta-5-desaturase in whole cells of Saccharomyces cerevisiae transformed with pTh5009.1; format: cell-based
T1 construct: expressed in transfected cells; host or cells: Saccharomyces cerevisiae INVSc1 transformed with pTh5009.1 (pYES2/CT backbone), galactose-induced; whole cells or spheroplasts
T1 sequence (O60427 with tags, fused parts or gaps): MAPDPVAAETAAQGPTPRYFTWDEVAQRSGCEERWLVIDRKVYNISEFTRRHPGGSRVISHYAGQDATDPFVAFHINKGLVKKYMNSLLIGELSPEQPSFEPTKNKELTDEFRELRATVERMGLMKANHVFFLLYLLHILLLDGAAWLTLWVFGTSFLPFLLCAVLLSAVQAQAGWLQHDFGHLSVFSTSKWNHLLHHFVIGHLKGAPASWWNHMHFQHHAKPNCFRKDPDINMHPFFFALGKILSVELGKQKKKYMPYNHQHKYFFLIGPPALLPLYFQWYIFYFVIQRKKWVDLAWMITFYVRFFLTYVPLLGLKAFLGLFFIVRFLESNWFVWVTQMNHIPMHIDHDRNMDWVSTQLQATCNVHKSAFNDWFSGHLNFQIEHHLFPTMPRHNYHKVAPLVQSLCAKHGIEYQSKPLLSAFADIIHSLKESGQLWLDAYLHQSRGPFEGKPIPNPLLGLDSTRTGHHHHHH
Procedure: as §2
(§3) Calculations: The delta-5-desaturase activity was determined by measuring the conversion of radiolabelled dihomogammalinolenic acid to arachidonic acid (20:3n-6 to 20:4n-6). The percent inhibition was calculated as described elsewhere (Kawashima et al., 1996, Biosci. Biotech. Biochem., 60:1672-1676): % Inhibition=100(activity without the inhibitor−activity with the inhibitor)/activity without the inhibitor

[4] = target: T2, rat delta-5-desaturase (Rattus norvegicus, UniProt Q920R3, Q29H/R30G); assay: Inhibition of rat delta-5-desaturase in spheroplasts of Saccharomyces cerevisiae transformed with pYr5014.1; format: cell-based
T2 construct: A rD5D cDNA fragment spanning nucleotides +1 to +1344 was cloned by RT-PCR using total RNA extracted from rat liver tissue; expressed in transfected cells; host or cells: Saccharomyces cerevisiae INVSc1 transformed with pYr5014.1 (pYES2 backbone), galactose-induced; whole cells or spheroplasts
T2 sequence (Q920R3 1-447 Q29H/R30G): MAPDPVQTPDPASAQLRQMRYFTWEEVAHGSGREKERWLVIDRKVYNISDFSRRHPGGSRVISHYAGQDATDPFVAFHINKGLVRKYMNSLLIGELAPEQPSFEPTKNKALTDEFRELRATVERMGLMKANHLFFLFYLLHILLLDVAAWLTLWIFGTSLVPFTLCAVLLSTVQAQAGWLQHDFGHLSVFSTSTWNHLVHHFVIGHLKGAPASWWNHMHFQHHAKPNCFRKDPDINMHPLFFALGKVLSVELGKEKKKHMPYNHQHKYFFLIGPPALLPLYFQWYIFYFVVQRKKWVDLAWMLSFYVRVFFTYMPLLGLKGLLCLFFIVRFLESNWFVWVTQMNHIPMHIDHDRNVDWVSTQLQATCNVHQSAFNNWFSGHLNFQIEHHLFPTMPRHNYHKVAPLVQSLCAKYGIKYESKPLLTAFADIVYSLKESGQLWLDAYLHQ
Procedure: (§1) After 16 h incubation, spheroplasts were prepared as previously described in Example 8.

[5] = target: T3, delta-5-desaturase (Rattus norvegicus, UniProt Q920R3); assay: Inhibition of delta-5-desaturase activity in rat liver microsomes; format: biochemical
T3 construct: from tissue; host or cells: liver microsomes of Wistar rats
T3 sequence (Q920R3 whole entry): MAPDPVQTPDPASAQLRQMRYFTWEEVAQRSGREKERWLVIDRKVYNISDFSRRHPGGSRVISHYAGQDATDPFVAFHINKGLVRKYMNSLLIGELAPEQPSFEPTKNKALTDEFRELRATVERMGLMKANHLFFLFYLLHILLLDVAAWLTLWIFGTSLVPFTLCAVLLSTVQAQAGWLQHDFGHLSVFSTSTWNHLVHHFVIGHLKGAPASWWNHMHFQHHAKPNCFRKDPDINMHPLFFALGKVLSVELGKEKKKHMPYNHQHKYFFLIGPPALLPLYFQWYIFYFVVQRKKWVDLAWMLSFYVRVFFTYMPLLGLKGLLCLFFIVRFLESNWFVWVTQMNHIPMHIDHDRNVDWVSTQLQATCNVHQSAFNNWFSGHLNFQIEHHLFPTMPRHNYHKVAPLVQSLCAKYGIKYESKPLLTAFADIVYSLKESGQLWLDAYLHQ
Procedure: Preparation rat liver microsomes: Wistar rats under light halothane (15% in mineral oil) anesthesia were sacrificed by exsanguination during periods of high enzyme activity. Livers are immediately rinsed with cold 0.9% NaCl solution, weighed and minced with scissors. All procedures are performed at 4° C. unless specified otherwise. Livers are homogenized in a solution (1:3 w/v) containing 0.25 M sucrose, 62 mM. potassium phosphate buffer (pH 7.0), 0.15 M KCl, 1.5 mM N-acetylcysteine, 5 mM MgCl2, and 0.1 mM EDTA using 4 strokes of a Potter-Elvehjem tissue homogenizer. The homogenate is centrifuged at 10,400×g for 20 min to eliminate mitochondria and cellular debris. The supernatant is filtered through a 3-layer cheesecloth and centrifuged at 105,000×g for 60 min. The microsomal pellet is gently resuspended in the same homogenization solution with a small glass/teflon homogenizer and stored at −70° C. The absence of mitochondrial contamination is enzymatically assessed. The protein concentration is measured using bovine serum albumin as the standard.
Incubation of rat liver microsomes with delta-5-desaturase modulators: Reactions are started by adding 2 mg of microsomal protein to pre-incubated tubes containing 0.20 μCi of the substrate fatty acid (DLL) at a final concentration of 33.3 μM in 1.5 ml of homogenization solution, containing NaF (42 mM), niacinamide (0.33 mM), ATP (1.57 mM), NADH (1.0 mM), coenzyme A (0.09 mM) and a range of concentrations of the enzyme modulators. N-propyl gallate was added to the incubation medium to a final concentration of 0.02-0.32 mM. The tubes are vortexed vigorously and after 15 min incubation in a shaking water bath (37° C.), the reactions are stopped and fatty acids are analyzed as described in Example 6. Alternatively, fatty acid methyl esters are analyzed by capillary column gas chromatography (GC).

[6] = tested on: fatty acid desaturases; conditions: Kawashima et al., 1996; cited from earlier work
[7] = tested on: spheroplasts of Saccharomyces cerevisiae; assay: Cell density (O.D.600) and substrate radioactivity recovered in spheroplasts incubated with inhibitor
Source text: Total lipids were extracted and analyzed as described in Example 6.

[8] = target: T1, human delta-5-desaturase; assay: Inhibition of human delta-5-desaturase in spheroplasts of Saccharomyces cerevisiae transformed with pTh5009.1; format: cell-based
Procedure: as §1

[9] = target: T2, rat delta-5-desaturase; assay: Inhibition of rat delta-5-desaturase in whole cells of Saccharomyces cerevisiae transformed with pYr5014.1; format: cell-based
Procedure: as §2, §3

[10] = n-propyl gallate 0.25 mM, 20:3n-6 to 20:4n-6

Question: With `CC/C=C\C/C=C\C/C=C\C/C=C\C/C=C\C/C=C\CCC(=O)O` [DHA, docosahexaenoic acid] as the compound, how does the “Percent Activity Compared to Controls” value [1] read?
Answer: The value was 19.82 ± 1.41%.

Question: For `CCCOC(=O)c1cc(O)c(O)c(O)c1` [n-propyl gallate, 3,4,5-Trihydoxybenzoic acid propyl ester], which O.D.600 ([2]; n-propyl gallate 1.7 mM, pTh5009.1, without inhibitor 10.9) is on record?
Answer: The O.D.600 was 9.0.

Question: What about the O.D.600 ([2]; n-propyl gallate 3.5 mM, pTh5009.1) of the same compound?
Answer: The O.D.600 was 9.9.

Question: What about the O.D.600 ([2]; n-propyl gallate 7.0 mM, pTh5009.1) of the same compound?
Answer: Its O.D.600 is 10.5.

Question: And the O.D.600 ([2]; n-propyl gallate 7.0 mM, pYr5014.1, without inhibitor 6.7)?
Answer: Its O.D.600 is 6.5.

Question: And the O.D.600 ([2]; n-propyl gallate 14.0 mM, pYr5014.1)?
Answer: Its O.D.600 is 5.4.

Question: What about the “% inhibition” value ([3]; n-propyl gallate 1.7 mM, gene induced after addition of inhibitor) of the same compound?
Answer: The value was 25.0%.

Question: And the “% inhibition” value ([3]; n-propyl gallate 3.5 mM)?
Answer: The value was 63.3%.

Question: And the “% inhibition” value ([3]; n-propyl gallate 7.0 mM)?
Answer: The value was 100.0%.

Question: And the “% inhibition” value [4, 10]?
Answer: The value was 4.3%.

Question: And the “% inhibition” value ([4]; n-propyl gallate 1.00 mM)?
Answer: The value was 7.0%.

Question: And the “% inhibition” value ([4]; n-propyl gallate 2.00 mM)?
Answer: The value was 20.5%.

Question: And the “% inhibition” value ([4]; n-propyl gallate 4.00 mM)?
Answer: Its value is 50.4%.

Question: And the “% inhibition” value ([4]; n-propyl gallate 8.00 mM)?
Answer: Its value is 81.9%.

Question: What about the “concentration of the inhibitor at which a plateau of inhibition was reached” value [5] of the same compound?
Answer: The value was 0.08 to 0.32 mM.

Question: And the “% of inhibition” value ([5]; n-propyl gallate 0.02 mM, activity without inhibitor 394 pmol/mg microsomal protein/min)?
Answer: The value was 62.9%.

Question: What about the “% of inhibition” value ([5]; n-propyl gallate 0.04 mM) of the same compound?
Answer: The value was 74.9%.

Question: What about the “% of inhibition” value ([5]; n-propyl gallate 0.08 mM) of the same compound?
Answer: The value was 86.4%.

Question: And the “% of inhibition” value ([5]; n-propyl gallate 0.16 mM)?
Answer: The value was 88.7%.

Question: What about the “% of inhibition” value ([5]; n-propyl gallate 0.32 mM) of the same compound?
Answer: The value was 100.0%.

Question: What about the “type of inhibition of fatty acid desaturases” value [6] of the same compound?
Answer: The value was “noncompetitive inhibitor”.

Question: And the O.D.600 ([7]; n-propyl gallate 0.25 mM, pTh5009.1, without inhibitor 2.6)?
Answer: The O.D.600 was 2.4.

Question: What about the O.D.600 ([7]; n-propyl gallate 0.25 mM, pYr5014.1, without inhibitor 3.2) of the same compound?
Answer: The O.D.600 was 2.8.

Question: What about the O.D.600 ([7]; n-propyl gallate 0.50 mM, pTh5009.1) of the same compound?
Answer: The O.D.600 was 2.5.

Question: What about the O.D.600 ([7]; n-propyl gallate 1.00 mM, pTh5009.1) of the same compound?
Answer: The O.D.600 was 2.5.

Question: What about the O.D.600 ([7]; n-propyl gallate 1.00 mM, pYr5014.1) of the same compound?
Answer: Its O.D.600 is 2.9.

Question: What about the O.D.600 ([7]; n-propyl gallate 2.00 mM, pTh5009.1) of the same compound?
Answer: The O.D.600 was 2.2.

Question: What about the O.D.600 ([7]; n-propyl gallate 2.00 mM, pYr5014.1) of the same compound?
Answer: Its O.D.600 is 2.7.

Question: And the O.D.600 ([7]; n-propyl gallate 4.00 mM, pTh5009.1)?
Answer: Its O.D.600 is 2.4.

Question: What about the O.D.600 ([7]; n-propyl gallate 4.00 mM, pYr5014.1) of the same compound?
Answer: The O.D.600 was 2.9.

Question: And the O.D.600 ([7]; n-propyl gallate 8.00 mM, pTh5009.1)?
Answer: Its O.D.600 is 1.2.

Question: What about the O.D.600 ([7]; n-propyl gallate 8.00 mM, pYr5014.1) of the same compound?
Answer: Its O.D.600 is 2.8.

Question: And the “cytotoxicity (consistent O.D.600 readings)” value ([7]; n-propyl gallate between 0.7-4.0 mM)?
Answer: Its value is “not cytotoxic”.

Question: What about the “% inhibition” value [8, 10] of the same compound?
Answer: Its value is 14.6%.

Question: What about the “% inhibition” value ([8]; n-propyl gallate 0.50 mM) of the same compound?
Answer: Its value is 17.6%.

Question: What about the “% inhibition” value ([8]; n-propyl gallate 1.00 mM) of the same compound?
Answer: The value was 24.0%.

Question: What about the “% inhibition” value ([8]; n-propyl gallate 2.00 mM) of the same compound?
Answer: The value was 41.0%.

Question: What about the “% inhibition” value ([8]; n-propyl gallate 4.00 mM) of the same compound?
Answer: The value was 100.0%.

Question: What about the “% inhibition” value ([8]; n-propyl gallate 8.00 mM) of the same compound?
Answer: Its value is 100.0%.

Question: And the “% inhibition” value ([9]; n-propyl gallate 7.0 mM, gene induced after addition of inhibitor)?
Answer: Its value is 38.9%.

Question: And the “% inhibition” value ([9]; n-propyl gallate 14.0 mM)?
Answer: Its value is 68.5%.
